Assay results taken from paper PMC11607671, “Antiviral activity of cathelicidins against porcine epidemic diarrhea virus (PEDV): Mechanisms, and efficacy” (Virus Research, 2024).

What was measured:
Vero cells = assay: LDH release cytotoxicity assay; type: cell-based, African green monkey; details: 0-10 µM AMPs in DMEM, 3 h and 24 h, LDH release relative to 1% Triton X-100 lysis, three independent experiments, Fig. 1A+B
Procedure: Vero-mCeacam cells (Vero cells), derived from African green monkey kidney cells, were maintained in DMEM (Gibco, Thermo Fisher Scientific, Waltham, MA) supplemented with 10% FCS (Bodinco B.V., Alkmaar, The Netherlands) and 200 units/mL penicillin, and […] (P/S) (Gibco, Life Technologies Limited, Paisley, UK) at 37 °C and 5% CO2.
To assess the cytotoxicity of peptides, Vero cells were treated with AMPs (0 − 10 μM in DMEM) as outlined in paragraph 2.5. After 3 and 24 h of stimulation, the fraction of lactate dehydrogenase (LDH) released into the culture supernatant was measured using the Cyto Tox 96 nonradioactive cytotoxicity kit (Promega GmbH, Walldorf, Germany) according to the manufacturer's instructions, and expressed as a percentage of the maximum LDH release from cells, lysed by 1% Triton X-100 (Sigma-Aldrich, T8787, Darmstadt, Germany).
Fig. 1 The cytotoxicity of AMPs on Vero cells. Cells were incubated with 0 – 10 µM AMPs for either 3 h or 24 h A and B) LDH release assay, indicating cell membrane permeability after 3 and 24 h, respectively. C and D) WST assay, measuring cell metabolic activity after 3 and 24 h, respectively. ‘No peptide‘ represents cells incubated with only growth medium for the indicated times, serving as a control. P.C in the LDH assay are cells that have been lysed by the lysis buffer representing 100% release of intracellular LDH. […]

PEDV-GFP = assay: Pre-incubation (pre-treatment) antiviral assay; type: cell-based, Porcine epidemic diarrhea virus; details: Vero cells treated 3 h with AMPs (0-10 µM), washed, then infected with PEDV-GFP MOI 0.3 for 2 h; FC; Fig. 6B, C
Procedure: The effect of AMPs on viral infectivity was also determined when they were added to Vero-cells before (pre-treatment) or after (post-treatment) infection. In the pre-treatment assay (Fig. 6A), Vero cells were treated with different concentrations of CATH-B1 and LL-37 peptides (ranging from 0 to 10 µM) for various durations (1, 2, 3, 4, and 24 h) at 37 °C. Subsequently, the cells were washed 2 times with PBS and infected with PEDV-GFP at an MOI of 0.3 for 2 h
In post-incubation assays (Fig. 7A), cells were initially exposed to the virus for 2 h, washed 2times with PBS and subsequently treated with AMPs for 3 h Both for pre- and post-infection assays, after the respective incubation periods, the cells were assessed using fluorescence microscopy and quantified using FC as described above.
Fig. 6 Effects of AMPs in pre-incubation assay. A) Experimental set-up of pre-incubation experiment. B) FC was employed to quantify the percentage of GFP-positive cells during pre-incubation. […] The reported values represent the mean ± SD derived from three independent experiments performed in triplicate. * p < 0.05; ** p < 0.01.

PEDV [1] = assay: Peptide-virus interaction assay with Capto Core 700 beads; type: cell-based, Porcine epidemic diarrhea virus; details: Fig. 8
Procedure: In order to determine if CATH-B1 and LL-37 physically interact with PEDV, Capto Core 700 beads (GE Healthcare Life Sciences, Chicago, IL, USA) were used to selectively eliminate unbound AMPs. PEDV were pre-incubated with or without CATH-B1/LL-37 in Opti-MEM medium, and Capto Core 700 beads were added, followed by a 1 h incubation at 4 °C while slowly rotating. After centrifugation, supernatants were collected and applied to the cells. To make sure the AMP was removed effectively, we tested samples with peptides but no virus using the same process. The collected supernatants were used to inoculate cells, and the number of infected cells was determined using the described method.
Fig. 8 Interactions between CATH-B1 and LL-37 with PEDV. CATH-B1/LL-37 were pre-incubated with the virus, and subsequently, the peptide and virus were separated using Capto Core beads. The supernatant containing the separated virus was then employed to infect Vero cells. […] The data is presented as the mean ± SEM of three independent experiments in duplicate, each with triplicate samples. **** p < 0.0001.

PEDV [2] = assay: Co-incubation antiviral assay, PEDV MOI=1, Vero cells; type: cell-based, Porcine epidemic diarrhea virus; details: Fig. 4B
Procedure: In order to determine the effect of AMPs on the infectivity of PEDV, Vero cells (5 × 10^5 per well) were seeded in 12-well plates and cultured overnight at 37 °C, 5% CO2. In a co-incubation of virus and AMPs experiments (Fig. 2A), the mixture of AMPs (0–10 µM) and PEDV-GFP (MOI= 0.3) in a 1 mL volume of DMEM (P/S + 10% FCS) was added to the cells and incubated at 37 °C. After 2 h, the supernatant was replaced with fresh DMEM (P/S + 10% FCS) and incubated for 24 h. Subsequently, the cells were washed 2 times with flow cytometry buffer (500 mL PBS+ 10 mL FCS+ 250 µL of 10% NaN3) and were imaged with an EVOS M5000 Imaging System for semi-quantitative determination of infectivity. Eventually, cells were carefully detached by 2.5% trypsin, stained with ViaKrome 808 fixable viability dye (1:1000), and incubated for 30 min at 4 °C. Following washing, the cells were fixed using 50 µL of 4% PFA for 10 min, and a minimum of 1 × 10^5 cells were acquired using the CytoFLEX LX Flow Cytometer (FC)(Beckman Coulter, USA). Data was analyzed using FlowJo software v.10.6 (Flowjo LCC, Ashland, OR, USA).
Fig. 4 The inhibitory effect of AMPs on PEDV at MOI=1. A) Fluorescence microscopy image was captured at 20 × magnification to visualize the GFP fluorescence signal in Vero cells following co-incubation of AMPs and PEDV at MOI=1. B) The percentage of GFP-positive cells was determined by FC after 3 h co-incubation of PEDV and AMPs. C) The fluorescence intensity of GFP across three different concentrations of LL-37 was illustrated through the FC histogram. […] The reported values in 4A represent the mean ± SD of three independent experiments performed in duplicate **** p < 0.0001.

LLGDFFRKSKEKIGKEFKRIVQRIKDFLRNLVPRTES [LL-37, human cathelicidin antimicrobial peptide, 37 residues]
cytotoxicity (LDH release) (Vero cells): no toxic effects
antiviral activity in pre-incubation assay, in words (PEDV-GFP): potent inhibition of viral infection in Vero cells at all three concentrations
virus infectivity, peptide pre-incubated with beads before PEDV introduction (PEDV [1]; Capto Core 700 beads, Vero cells): minimal effects on virus infectivity
virus infectivity, peptide incubated with PEDV without beads (PEDV [1]; no Capto Core 700 beads, Vero cells): a decrease in virus infectivity
antiviral activity when peptide is combined with virus and beads (PEDV [1]; peptide + PEDV, then Capto Core 700 beads 1 h at 4 °C, supernatant applied to Vero cells): lost its inhibitory effect
% infected cells (FC), co-incubation at MOI=1 (PEDV [2]; 10 µM peptide, PEDV MOI=1, Vero cells, no-peptide control almost 100%): 30%
antiviral effect at MOI=1, in words (PEDV [2]; PEDV MOI=1, co-incubation, Vero cells, FC): remained strong
